Experimental data: patent publication EP2266963A1, “Fluorogenic peptidase substrate” (ECOLE NORMALE SUPERIEURE DE LYON, priority 2009, dated 2010)

Experiments:
[1] = tested on: leucyl aminopeptidase; assay: Time-dependent fluorescence signal evolution with pure enzyme in LB medium, with or without inhibitor; assay type: biochemical; settings: 37°C
Experimental: Scheme 3 presents the reaction cascade initiated by cleavage of the substrate 1 or 2 by a target peptidase. [drawing 5] • Figure 1 (ordinate in arbitrary fluorescence units a.u.) represents the emission spectra (λexc = 365 nm) of substrate 2 (20 µM) before (curve a) and after incubation with leucyl aminopeptidase for 1 h (curve b) at 25 °C in Tris-HCl buffer. The experiment was monitored with a standard multi-well plate fluorescence spectrophotometer (Spectramax Gemini by Molecular Devices). • Figure 2 presents a fluorogenic test (λexc = 365 nm, λem = 495 nm) at 25 °C for the activity of leucyl aminopeptidase in Tris-HCl (25 mM, pH 7.4) using 38 µM of substrate 1 or 2 , and 0.02 U mL^-1 of leucyl aminopeptidase. The following curves for time-dependent fluorescence signal evolution were obtained : (a) substrate 2 with enzyme, (b) substrate 1 with enzyme (c) substrate 2 without enzyme but with added bovine serum albumin (0.1 mg mL^-1), (d) substrate 1 without enzyme but with added bovine serum albumin (0.1 mg mL^-1). • Figure 3 presents the time-dependent signal evolution obtained with pure enzyme in complex LB (Lysogeny broth) medium (from Fisher, "LB Broth Lennox", ref 240230) rather than in pure buffer (TRIS-HCl).
(§1) Substrate 2 concentration : 6 µM; enzyme : leucyle aminopeptidase (0.01 U); 37°C; LB medium; emission wavelength : 495 nm; Spectramax Gemini from Molecular Device.
Figure 4 presents the time-dependent signal evolution obtained with pure enzyme in LB medium in the presence or absence of a standard aminopeptidase inhibitor (bestatine).
Substrate 2 concentration : 6 µM; enzyme : leucyle aminopeptidase (0.01 U); inhibitor concentration : 10 nM; 37°C; LB medium; emission wavelength : 495 nm ;

[2] = tested on: leucyl aminopeptidase; assay: Fluorogenic test for leucyl aminopeptidase activity in Tris-HCl buffer; assay type: biochemical; settings: Figure 2 curve a; substrate with enzyme; TRIS-HCl buffer 25 mM pH 7.4; 38 µM substrate; 0.02 U mL^-1 enzyme; 25 °C; λexc 365 nm, λem 495 nm
Experimental: Column chromatography was performed using silicagel Si 60 (40-63 µm). ^1H and ^13C NMR spectra were recorded at 200.13 MHz, 50.13 MHz, respectively. Chemical shifts (δ) are reported in ppm (s = singlet, d= doublet, t = triplet, m = multiplet, br = broad) and quoted with reference to tetramethyl silane or from solvent signals. NMR coupling constants (J) are reported in Hertz. Fluorescence assays were carried out in black roundbottom polypropylene 96-well-plates (NUNCLONE, Nunc Inc.) and recorded on a microplate spectrofluorimeter (Gemini XPS by Molecular Devices).
Scheme 3 presents the reaction cascade initiated by cleavage of the substrate 1 or 2 by a target peptidase. [drawing 5] • Figure 1 (ordinate in arbitrary fluorescence units a.u.) represents the emission spectra (λexc = 365 nm) of substrate 2 (20 µM) before (curve a) and after incubation with leucyl aminopeptidase for 1 h (curve b) at 25 °C in Tris-HCl buffer. The experiment was monitored with a standard multi-well plate fluorescence spectrophotometer (Spectramax Gemini by Molecular Devices). • Figure 2 presents a fluorogenic test (λexc = 365 nm, λem = 495 nm) at 25 °C for the activity of leucyl aminopeptidase in Tris-HCl (25 mM, pH 7.4) using 38 µM of substrate 1 or 2 , and 0.02 U mL^-1 of leucyl aminopeptidase. […]

[3] = Spontaneous degradation of substrate in LB medium without enzyme or cells (background fluorescence signal); assay type: physicochemical; settings: 37°C, emission 495 nm
Experimental: as §1
(§2) Substrate 2 concentration : 6 µM; bacterial cell line : DH5a (Invitrogen); 37°C; LB medium; emission wavelength : 495 nm. Substrate 2 is added during the exponential growth phase at an absorbance of 0.6 to 0.8.

[4] = tested on: bacterial cell line : DH5a; assay: Incubation of substrate with bacterial cells at wild-type aminopeptidase level in LB medium; assay type: cell-based, E-Coli; settings: Figure 5, 6 µM substrate added in exponential growth phase (absorbance 0.6 to 0.8), 37°C, emission 495 nm
Experimental: as §2

| SMILES | effect of inhibitor on signal evolution ([1]; Figure 4, inhibitor 10 nM, 6 µM substrate 2, enzyme 0.01 U) | time at which fluorescence signal reaches a plateau [2] | time at which fluorescence signal reaches a plateau ([1]; Figure 3, LB+E+substrate 2, 6 µM substrate, enzyme 0.01 U, emission 495 nm) | time at which signal reaches the same level as the uninhibited reaction ([1]; Figure 4, LB+E+I+substrate 2, inhibitor bestatine 10 nM, 6 µM substrate, enzyme 0.01 U) | time at which fluorescence signal reaches a plateau (uninhibited reaction) ([1]; Figure 4, LB+E+substrate 2, no inhibitor, 6 µM substrate, enzyme 0.01 U, emission 495 nm) | time at which signal plateaus in the absence of enzyme ([3]; Figure 3, LB+substrate 2, 6 µM substrate) | time at which signal reaches a plateau through slow degradation of the substrate ([3]; Figure 5, LB + substrate 2, no cells, 6 µM substrate) | time at which signal reaches a plateau on incubation with cells [4] |
| --- | --- | --- | --- | --- | --- | --- | --- | --- |
| CC(C)C[C@H](NC(=O)[C@@H](O)[C@H](N)Cc1ccccc1)C(=O)O [inhibitor (I), bestatine, reference compound] | a delay in signal evolution can be detected |  |  |  |  |  |  |  |
| CC(C)C[C@H](N)C(=O)NCCC(C)(C)C(=O)OCOc1ccccc1-c1nc2ccccc2c(=O)[nH]1 [substrate 2] |  | 0.5 h | approximately 1 hour | 2.5 h | about 1.5 h | about 12 hours | 10 h | 2.5 h |
